The target in experiment [1] is T1, Serine/threonine-protein kinase TNNI3K (Homo sapiens) (UniProt Q59H18).
T1 sequence (whole entry): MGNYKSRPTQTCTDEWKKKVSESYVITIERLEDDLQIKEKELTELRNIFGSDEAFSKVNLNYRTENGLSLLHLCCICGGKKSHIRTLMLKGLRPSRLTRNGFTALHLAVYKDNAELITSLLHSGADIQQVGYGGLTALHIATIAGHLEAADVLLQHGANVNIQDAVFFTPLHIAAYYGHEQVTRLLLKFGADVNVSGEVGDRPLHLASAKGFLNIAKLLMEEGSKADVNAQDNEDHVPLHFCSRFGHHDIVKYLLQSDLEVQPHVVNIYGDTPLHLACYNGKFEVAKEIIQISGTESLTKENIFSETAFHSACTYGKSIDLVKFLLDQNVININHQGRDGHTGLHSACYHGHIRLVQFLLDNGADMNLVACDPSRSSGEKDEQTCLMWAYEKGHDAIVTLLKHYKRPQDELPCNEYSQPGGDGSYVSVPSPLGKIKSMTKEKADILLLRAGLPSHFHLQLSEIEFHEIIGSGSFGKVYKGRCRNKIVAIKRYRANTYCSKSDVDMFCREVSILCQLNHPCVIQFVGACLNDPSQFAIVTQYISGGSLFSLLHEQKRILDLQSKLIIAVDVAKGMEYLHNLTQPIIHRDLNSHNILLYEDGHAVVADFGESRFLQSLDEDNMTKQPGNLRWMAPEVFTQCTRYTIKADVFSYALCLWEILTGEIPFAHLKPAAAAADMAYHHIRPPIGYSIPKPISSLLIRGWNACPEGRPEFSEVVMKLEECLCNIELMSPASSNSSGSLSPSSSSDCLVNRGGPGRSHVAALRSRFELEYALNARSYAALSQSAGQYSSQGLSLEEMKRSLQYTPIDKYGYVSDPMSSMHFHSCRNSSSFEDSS
As to the kind of experiment: Selectivity interaction (KinomeScan (DiscoverX)) EUB0000666a TNNI3K. The settings on record: at 10 µM.

Experiment [2] concerns the target Dual specificity testis-specific protein kinase 1 (Homo sapiens) (UniProt Q15569). As to the kind of experiment: Selectivity interaction (KinomeScan (DiscoverX)) EUB0000607a TESK1. Particulars: at 10 µM.
The target in experiment [3] is Casein kinase II subunit alpha (Homo sapiens, UniProt P68400). As to the kind of experiment: Selectivity interaction (ActivX KiNativ screen (kinase selectivity in THP-1 cell lysates)) EUB0000639a CSNK2A1. Format: subcellular. Particulars: lysate.
Experiment [4] deals with T2, Serine/threonine-protein kinase ULK1 (Homo sapiens) (UniProt O75385).
T2 sequence (whole entry): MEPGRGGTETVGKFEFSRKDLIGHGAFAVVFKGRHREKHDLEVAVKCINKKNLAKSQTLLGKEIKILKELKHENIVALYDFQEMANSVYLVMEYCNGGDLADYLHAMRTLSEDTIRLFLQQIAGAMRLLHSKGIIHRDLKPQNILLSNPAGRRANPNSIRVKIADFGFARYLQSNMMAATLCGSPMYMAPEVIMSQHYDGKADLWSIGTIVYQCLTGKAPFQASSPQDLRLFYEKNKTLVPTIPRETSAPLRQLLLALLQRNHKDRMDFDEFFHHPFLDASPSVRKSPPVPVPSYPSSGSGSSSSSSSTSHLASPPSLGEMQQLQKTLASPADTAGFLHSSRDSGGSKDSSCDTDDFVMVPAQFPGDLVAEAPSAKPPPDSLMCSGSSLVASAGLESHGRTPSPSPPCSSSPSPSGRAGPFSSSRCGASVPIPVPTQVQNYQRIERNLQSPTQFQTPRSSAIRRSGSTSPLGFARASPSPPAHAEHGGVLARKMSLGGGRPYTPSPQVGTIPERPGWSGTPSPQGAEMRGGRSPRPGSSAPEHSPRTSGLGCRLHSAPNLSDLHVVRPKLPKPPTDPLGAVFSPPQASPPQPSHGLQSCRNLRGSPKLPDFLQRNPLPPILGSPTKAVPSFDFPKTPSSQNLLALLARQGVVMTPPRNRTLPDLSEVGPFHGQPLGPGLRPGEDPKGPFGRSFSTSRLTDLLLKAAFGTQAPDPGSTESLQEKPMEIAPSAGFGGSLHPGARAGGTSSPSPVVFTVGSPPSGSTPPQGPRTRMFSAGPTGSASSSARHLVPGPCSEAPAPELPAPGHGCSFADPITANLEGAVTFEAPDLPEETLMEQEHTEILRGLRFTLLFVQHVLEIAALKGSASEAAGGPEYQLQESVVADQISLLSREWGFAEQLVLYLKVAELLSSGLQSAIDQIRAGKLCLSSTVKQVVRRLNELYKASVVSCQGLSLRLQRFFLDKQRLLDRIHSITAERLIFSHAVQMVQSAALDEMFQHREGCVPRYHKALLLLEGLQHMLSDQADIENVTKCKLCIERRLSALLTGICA
As to the kind of experiment: Selectivity interaction (ActivX KiNativ screen (kinase selectivity in THP-1 cell lysates)) EUB0000639a ULK1. Format: subcellular. The settings on record: lysate, at 0.01 µM.

In experiment [5] the target is T3, Dual specificity mitogen-activated protein kinase kinase 4 (Homo sapiens) (UniProt P45985).
T3 sequence (whole entry): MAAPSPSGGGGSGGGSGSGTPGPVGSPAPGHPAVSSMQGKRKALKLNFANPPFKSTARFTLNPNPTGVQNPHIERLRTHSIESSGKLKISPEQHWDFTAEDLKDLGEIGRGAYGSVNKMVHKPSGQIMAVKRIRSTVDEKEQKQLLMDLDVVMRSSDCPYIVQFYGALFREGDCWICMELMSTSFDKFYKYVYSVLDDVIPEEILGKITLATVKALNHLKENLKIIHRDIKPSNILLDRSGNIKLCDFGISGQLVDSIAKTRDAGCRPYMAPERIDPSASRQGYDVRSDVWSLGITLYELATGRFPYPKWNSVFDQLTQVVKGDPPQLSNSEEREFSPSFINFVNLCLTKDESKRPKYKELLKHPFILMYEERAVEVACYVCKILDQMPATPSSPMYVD
As to the kind of experiment: Selectivity interaction (Kinase panel (DSF assay)) EUB0001559a MAP2K4.

Experiment [6] addresses Phosphatidylinositol 4,5-bisphosphate 3-kinase catalytic subunit gamma isoform (Homo sapiens) (UniProt P48736). As to the kind of experiment: Selectivity interaction (Panel of kinases, GPCRs, ion channels and transporters (enzymatic assay)) EUB0000266bCl PIK3CG.

SMILES strings stand for the structures.

Casein kinase II subunit alpha, sequence (P68400 whole entry, looked up): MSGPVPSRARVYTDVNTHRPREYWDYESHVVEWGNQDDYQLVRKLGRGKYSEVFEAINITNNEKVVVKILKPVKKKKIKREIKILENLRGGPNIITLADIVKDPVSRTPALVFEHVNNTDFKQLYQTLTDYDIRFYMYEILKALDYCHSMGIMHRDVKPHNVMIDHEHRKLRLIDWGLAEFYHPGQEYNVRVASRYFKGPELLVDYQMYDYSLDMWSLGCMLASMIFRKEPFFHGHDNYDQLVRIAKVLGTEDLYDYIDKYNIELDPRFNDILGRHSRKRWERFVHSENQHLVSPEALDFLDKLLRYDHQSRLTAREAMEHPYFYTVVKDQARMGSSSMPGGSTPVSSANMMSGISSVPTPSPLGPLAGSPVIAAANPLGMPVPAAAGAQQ
Phosphatidylinositol 4,5-bisphosphate 3-kinase catalytic subunit gamma isoform (Homo sapiens), sequence (P48736 whole entry, looked up, canonical isoform): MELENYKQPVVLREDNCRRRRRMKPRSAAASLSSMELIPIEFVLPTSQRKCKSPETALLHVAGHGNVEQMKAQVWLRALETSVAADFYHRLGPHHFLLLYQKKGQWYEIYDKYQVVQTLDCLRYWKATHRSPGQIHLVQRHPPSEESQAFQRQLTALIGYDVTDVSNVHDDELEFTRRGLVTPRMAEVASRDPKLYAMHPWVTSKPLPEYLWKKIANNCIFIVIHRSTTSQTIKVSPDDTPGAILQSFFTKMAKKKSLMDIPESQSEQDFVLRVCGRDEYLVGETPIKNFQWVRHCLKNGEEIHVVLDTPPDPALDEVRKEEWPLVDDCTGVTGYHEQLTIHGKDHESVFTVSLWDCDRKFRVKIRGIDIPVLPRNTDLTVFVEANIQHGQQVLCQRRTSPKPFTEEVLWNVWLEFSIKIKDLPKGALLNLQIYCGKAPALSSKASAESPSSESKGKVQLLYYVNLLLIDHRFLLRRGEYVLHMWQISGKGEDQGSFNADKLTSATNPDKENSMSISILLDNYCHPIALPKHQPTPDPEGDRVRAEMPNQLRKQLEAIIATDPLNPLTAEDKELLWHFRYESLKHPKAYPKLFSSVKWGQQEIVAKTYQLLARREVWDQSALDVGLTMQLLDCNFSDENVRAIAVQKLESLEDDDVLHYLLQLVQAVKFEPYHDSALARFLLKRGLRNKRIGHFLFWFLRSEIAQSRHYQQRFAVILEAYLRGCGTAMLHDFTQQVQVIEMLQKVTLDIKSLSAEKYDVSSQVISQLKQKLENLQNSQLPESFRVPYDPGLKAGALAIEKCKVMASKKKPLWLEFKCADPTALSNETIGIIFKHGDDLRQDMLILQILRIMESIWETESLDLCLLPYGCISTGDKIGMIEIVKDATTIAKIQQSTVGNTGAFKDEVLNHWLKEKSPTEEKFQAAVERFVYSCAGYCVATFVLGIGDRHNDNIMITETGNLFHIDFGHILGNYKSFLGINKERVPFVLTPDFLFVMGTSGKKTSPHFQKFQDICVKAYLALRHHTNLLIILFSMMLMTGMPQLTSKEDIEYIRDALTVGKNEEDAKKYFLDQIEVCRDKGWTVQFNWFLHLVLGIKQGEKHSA
Dual specificity testis-specific protein kinase 1 (Homo sapiens), sequence (Q15569 whole entry, looked up): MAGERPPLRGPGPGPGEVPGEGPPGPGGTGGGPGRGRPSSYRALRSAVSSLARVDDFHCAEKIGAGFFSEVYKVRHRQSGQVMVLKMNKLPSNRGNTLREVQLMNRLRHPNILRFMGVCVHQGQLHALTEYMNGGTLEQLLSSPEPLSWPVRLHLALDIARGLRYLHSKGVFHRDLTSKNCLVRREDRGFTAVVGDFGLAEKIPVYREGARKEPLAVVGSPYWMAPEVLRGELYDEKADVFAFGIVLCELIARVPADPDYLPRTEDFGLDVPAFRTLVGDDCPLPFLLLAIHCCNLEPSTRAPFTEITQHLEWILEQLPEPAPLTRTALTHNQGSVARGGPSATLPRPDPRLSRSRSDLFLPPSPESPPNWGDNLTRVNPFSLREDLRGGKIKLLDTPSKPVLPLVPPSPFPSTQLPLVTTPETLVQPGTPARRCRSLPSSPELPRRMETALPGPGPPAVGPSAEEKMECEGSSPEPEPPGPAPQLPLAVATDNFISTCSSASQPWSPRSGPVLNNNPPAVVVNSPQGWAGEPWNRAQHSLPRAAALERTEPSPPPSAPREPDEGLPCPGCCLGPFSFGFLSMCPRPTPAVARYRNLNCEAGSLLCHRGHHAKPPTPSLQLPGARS

In turn, `O=C(NOC[C@H](O)CO)c1ccc(F)c(F)c1Nc1ccc(I)cc1F` returned a % of control in experiment [1] of 51%.

For the compound `CNC(=O)Nc1ccc(-c2nc(N3CC4CCC(C3)O4)c3cnn(C4CCC5(CC4)OCCO5)c3n2)cc1`, in experiment [2], the % of control came out at 80%. Take `CC[C@@H]1[C@H](F)C(=O)N[C@@H]1COc1nccc2cc(C(N)=O)c(OC)cc12` [ZIMLOVISERTIB]: the figures for the % of inhibition in experiment [3] (at 1 µM), in experiment [3] (at 5 µM) and in experiment [4] were 25.8%, -6.9% and -5.9%, respectively.

Regarding `CN(C(=O)c1cnn2cccnc12)c1cc2c(cc1N1CCOCC1)C(=O)N(C[C@@H](F)C(C)(C)O)C2`, in experiment [5], the dTM turned out to be 0.2 K. On to `CCn1c(-c2nc3cc(C(=O)N4CCCC(N)C4)ccc3n2C)cc2ccccc21` (configuration not stated), for which, in experiment [6], the pXC50 was less than 4.5 M.

These data come from ChEMBL document CHEMBL5465560, “Selectivity Literature for EUbOPEN Chemogenomic Library” (2024).
